Measured values taken from paper PMC9820316, “Novel Arylpiperazine Derivatives of Salicylamide with α1-Adrenolytic Properties Showed Antiarrhythmic and Hypotensive Properties in Rats” (International Journal of Molecular Sciences, 2022).
Marks after values point to notes of the source that are not given here.

Experiments:
[1] = test system: adrenaline-induced arrhythmia model in rats; assay: Therapeutic antiarrhythmic activity in adrenaline-induced arrhythmia; conditions: 5 mg/kg iv immediately after adrenaline 20 µg/kg; number of animals with event
Procedure: The experiments were carried out according to the method described by Szekeres and Papp [71]. The heart rhythm disturbances, such as extrasystoles, conduction blocks, and bradycardia, were induced by iv injection of adrenaline (20 µg/kg) to anesthetized rats (thiopental, 75 mg/kg, ip). […] The Aspel ASCARD apparatus (standard II lead, with a tape of speed 50 mm/s and voltage calibration of 1 mV = 1 cm) was used for the ECG measurements. The ECG was recorded during the first 2 min and in the 5th, 10th, and 15th min after the adrenaline injection (Figure 3B). The lack or decreased amount of extrasystoles, atrioventricular blocks, and bradycardia in the ECG recordings compared to the control group was the criterion of antiarrhythmic activity [72].
Automated ECG waveform analysis was evaluated as described earlier [55], using Eleven Maze software version 0.1 from Eleven Products Sp. z o.o. […] The software, under expert supervision, recognized and classified the heart rhythm irregularities. It also calculated PQ, QRS, QTc, and rate parameters.

α1-adrenergic receptors = assay: α1-adrenoceptor radioligand binding assay ([3H]-prazosin, rat cortex); conditions: rat cortex tissue, mean ± SEM
Outline: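 Rat cerebral cortex membranes in 50 mM Tris-HCl pH 7.6, with 7–8 compound concentrations in duplicate. Nonspecific binding defined by 10 μM phentolamine for [3H]-prazosin (α1) or 10 μM clonidine for [3H]-clonidine (α2). Filtration and scintillation counting; Ki calculated.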

α2-adrenergic receptors = assay: α2-adrenoceptor radioligand binding assay ([3H]-clonidine, rat cortex); conditions: rat cortex tissue, mean ± SEM, n.a. = did not bind at 10^−5 M
Procedure: The α1- and α2-adrenoceptor radioligand binding assays were performed on the rat cerebral cortex using previously described methods. […] The brains were homogenized using the ULTRA-TURRAX homogenizer in 10 mL of an ice-cold 50 mM Tris-HCl buffer (pH 7.6). The homogenates were centrifuged at 20,000× g for 20 min (0–4 °C). Subsequently, the cell pellet was resuspended in the Tris–HCl buffer and centrifuged again. Radioligand binding assays were carried out in plates (MultiScreen/Millipore). The final incubation mixture, with a volume of 300 μL, consisted of 240 μL of the tissue suspension, 30 μL of the radioligand solution, and 30 μL of the buffer containing 7–8 concentrations of the studied compounds. In order to measure the unspecific binding, 10 μM phentolamine (for [^3H]-prazosin) or 10 μM clonidine (for [^3H]-clonidine) were utilized. The incubation was completed by rapid filtration through Whatman GF/C filters using a vacuum manifold (Millipore). The filters were then washed twice with the assay buffer and placed in scintillation vials with a liquid scintillation cocktail. Radioactivity was measured in a WALLAC 1409 DSA liquid scintillation counter (Perkin Elmer, USA). All the assays were performed in duplicates, and the inhibitory constants (Ki) were calculated.

[2] = test system: pressor response to methoxamine in rats; assay: Influence on blood vasopressor response to methoxamine in rats; assay type: in vivo, rat; conditions: 2.5 mg/kg iv, methoxamine 150 μg/kg before and 5 min after compound
Outline: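 Anaesthetised (thiopental 75 mg/kg ip) normotensive Wistar rats, carotid artery cannulated. Pressor response to methoxamine (150 µg/kg, iv) recorded before and 5 min after test compound, given at its lowest hypotensive dose, after 15-min stabilisation.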

[3] = test system: calcium chloride-induced arrhythmia model in rats; assay: Prophylactic antiarrhythmic activity in calcium chloride-induced arrhythmia; assay type: in vivo, rat; conditions: 5 mg/kg iv 15 min before calcium chloride 140 mg/kg; number of animals with event
[4] = test system: adrenaline-induced arrhythmia model in rats; assay: Prophylactic antiarrhythmic activity in adrenaline-induced arrhythmia; assay type: in vivo, rat; conditions: for Blocks / Bradycardia / Extrasystoles / Mortality: number of animals with event
normal ECG in rats = assay: Effect on a normal electrocardiogram in rats; assay type: in vivo, rat; conditions: for HR—heart rate / PQ interval / QRS complex / QTc (Bazzett's formula) / decrease of the heart rate: 5 mg/kg iv; for HR—heart rate / PQ interval / QRS complex / QTc (Bazzett's formula): mean ± SD; for PQ interval / QRS complex / QTc (Bazzett's formula): in ms (unit assumed)
Procedure: The procedure was performed to exclude the negative effects of the tested compounds on the normal ECG, according to the method described earlier. […] Firstly, animals were anesthetized with thiopental (75 mg/kg ip). […] The influence on PQ, QTc interval, QRS complex, and heart rate was evaluated. The Bazzett’s formula: QTc = QT/√RR was used to calculate QTc. All the studied compounds were administered at a dose of 5 mg/kg.

normotensive rats = assay: Influence on blood pressure in the normotensive rats; assay type: in vivo, rat; conditions: for DBP—diastolic blood pressure / SBP—systolic blood pressure: mean ± SD
Procedure: The experiment was performed according to the method described earlier. Normotensive Wistar rats were anesthetized with thiopental (75 mg/kg ip). The right carotid artery was cannulated with a polyethylene tube filled with heparin solution, using a Datamax apparatus (Columbus Instruments, Columbus, OH, USA). After 15 min of the stabilization period, the studied compounds were administered iv, and their effect on systolic and diastolic blood pressure was evaluated (Figure 4A).

[5] = 0.25 mg/kg iv 15 min before adrenaline 20 μg/kg
[6] = 0.5 mg/kg iv 15 min before adrenaline 20 μg/kg
[7] = 1 mg/kg iv 15 min before adrenaline 20 μg/kg
[8] = 0 min (prior to administration)
[9] = 1.0 mg/kg iv, 0 min (before administration)
[10] = 2.5 mg/kg iv, 0 min (before administration)

Cl.NC(=O)c1ccccc1OCCCCCN1CCN(c2cccc(Cl)c2)CC1 [JJGW02, 2-{5-[4-(3-chlorophenyl)piperazin-1-ylo]pentoxy}benzamide hydrochloride]
Blocks [1]: 1/6
Bradycardia [1]: 2/6
Mortality [1]: 1/6
Adrenergic Receptors—pKi α1 (α1-adrenergic receptors): 8.33 ± 0.02
Adrenergic Receptors—pKi α2 (α2-adrenergic receptors): 6.20 ± 0.02
attenuation of the methoxamine pressor response [2]: 100%
Blocks [3]: 5/6
Bradycardia [3]: 6/6
Extrasystoles [3]: 5/6
Fibrillations [3]: 4/6
Mortality [3]: 6/6
Blocks [4, 5]: 5/6
Bradycardia [4, 5]: 5/6
Extrasystoles [4, 5]: 5/6
Mortality [4, 5]: 3/6
Blocks [4, 6]: 6/6
Bradycardia [4, 6]: 5/6
Extrasystoles [4, 6]: 5/6
Mortality [4, 6]: 0/6
Blocks [4, 7]: 5/6
Bradycardia [4, 7]: 4/6
Extrasystoles [4, 7]: 5/6
Mortality [4, 7]: 1/6
ED50 ([4]; prophylactic, iv 15 min before adrenaline 20 μg/kg, confidence limits in brackets (Litchfield and Wilcoxon)): 0.45 (0.11–1.77) mg/kg
dose affecting the heart rate relative to the ED50 value in the adrenaline-induced arrhythmia model (normal ECG in rats; 5 mg/kg iv vs ED50): 11 fold
HR—heart rate (normal ECG in rats; [8]): 311.1 ± 24.4
PQ interval (normal ECG in rats; [8]): 42.6 ± 2.0
QRS complex (normal ECG in rats; [8]): 36.0 ± 1.1
QTc (Bazzett's formula) (normal ECG in rats; [8]): 183.3 ± 7.1
decrease of the heart rate (normal ECG in rats; 5th min after the injection): 10%
decrease of the heart rate (normal ECG in rats; 10th min after the injection): 15%
decrease of the heart rate (normal ECG in rats; 15th min after the injection): 16%
HR—heart rate (normal ECG in rats; 5 min): 278.7 ± 37.0
PQ interval (normal ECG in rats; 5 min): 41.7 ± 1.8
QRS complex (normal ECG in rats; 5 min): 35.2 ± 1.2
QTc (Bazzett's formula) (normal ECG in rats; 5 min): 175.4 ± 14.0
HR—heart rate (normal ECG in rats; 10 min): 265.0 ± 30.1
PQ interval (normal ECG in rats; 10 min): 42.2 ± 1.6
QRS complex (normal ECG in rats; 10 min): 36.1 ± 1.8
QTc (Bazzett's formula) (normal ECG in rats; 10 min): 173.2 ± 15.7
HR—heart rate (normal ECG in rats; 15 min): 262.0 ± 37.3
PQ interval (normal ECG in rats; 15 min): 44.8 ± 5.9
QRS complex (normal ECG in rats; 15 min): 35.2 ± 0.7
QTc (Bazzett's formula) (normal ECG in rats; 15 min): 175.1 ± 16.0
DBP—diastolic blood pressure (normotensive rats; [9]): 87.7 ± 14.9 mmHg
SBP—systolic blood pressure (normotensive rats; [9]): 118.0 ± 10.5 mmHg
DBP—diastolic blood pressure (normotensive rats; 1.0 mg/kg iv, 5 min): 82.7 ± 16.0 mmHg
SBP—systolic blood pressure (normotensive rats; 1.0 mg/kg iv, 5 min): 113.7 ± 8.7 mmHg
DBP—diastolic blood pressure (normotensive rats; 1.0 mg/kg iv, 10 min): 83.3 ± 10.3 mmHg
SBP—systolic blood pressure (normotensive rats; 1.0 mg/kg iv, 10 min): 111.2 ± 6.4 mmHg
DBP—diastolic blood pressure (normotensive rats; 1.0 mg/kg iv, 20 min): 80.0 ± 14.1 mmHg
SBP—systolic blood pressure (normotensive rats; 1.0 mg/kg iv, 20 min): 109.7 ± 9.1 mmHg
DBP—diastolic blood pressure (normotensive rats; 1.0 mg/kg iv, 30 min): 73.7 ± 10.6 mmHg
SBP—systolic blood pressure (normotensive rats; 1.0 mg/kg iv, 30 min): 105.7 ± 7.5 mmHg
DBP—diastolic blood pressure (normotensive rats; 1.0 mg/kg iv, 40 min): 75.0 ± 13.2 mmHg
SBP—systolic blood pressure (normotensive rats; 1.0 mg/kg iv, 40 min): 107.7 ± 11.5 mmHg
DBP—diastolic blood pressure (normotensive rats; 1.0 mg/kg iv, 50 min): 73.7 ± 13.9 mmHg
SBP—systolic blood pressure (normotensive rats; 1.0 mg/kg iv, 50 min): 108.7 ± 12.9 mmHg
DBP—diastolic blood pressure (normotensive rats; 1.0 mg/kg iv, 60 min): 76.7 ± 19.2 mmHg
SBP—systolic blood pressure (normotensive rats; 1.0 mg/kg iv, 60 min): 111.0 ± 18.0 mmHg
DBP—diastolic blood pressure (normotensive rats; [10]): 84.8 ± 12.1 mmHg
SBP—systolic blood pressure (normotensive rats; [10]): 114.3 ± 15.7 mmHg
DBP—diastolic blood pressure (normotensive rats; 2.5 mg/kg iv, 5 min): 72.0 ± 9.4 ^c mmHg
SBP—systolic blood pressure (normotensive rats; 2.5 mg/kg iv, 5 min): 103.2 ± 13.0 ^c mmHg
DBP—diastolic blood pressure (normotensive rats; 2.5 mg/kg iv, 10 min): 72.8 ± 11.6 ^b mmHg
SBP—systolic blood pressure (normotensive rats; 2.5 mg/kg iv, 10 min): 104.2 ± 13.2 ^b mmHg
DBP—diastolic blood pressure (normotensive rats; 2.5 mg/kg iv, 20 min): 73.0 ± 9.6 ^b mmHg
SBP—systolic blood pressure (normotensive rats; 2.5 mg/kg iv, 20 min): 102.8 ± 13.4 ^b mmHg
DBP—diastolic blood pressure (normotensive rats; 2.5 mg/kg iv, 30 min): 72.3 ± 8.1 ^a mmHg
SBP—systolic blood pressure (normotensive rats; 2.5 mg/kg iv, 30 min): 103.7 ± 10.8 ^a mmHg
DBP—diastolic blood pressure (normotensive rats; 2.5 mg/kg iv, 40 min): 73.8 ± 9.4 ^a mmHg
SBP—systolic blood pressure (normotensive rats; 2.5 mg/kg iv, 40 min): 106.5 ± 10.6 mmHg
DBP—diastolic blood pressure (normotensive rats; 2.5 mg/kg iv, 50 min): 73.7 ± 8.7 mmHg
SBP—systolic blood pressure (normotensive rats; 2.5 mg/kg iv, 50 min): 103.2 ± 9.4 ^b mmHg
DBP—diastolic blood pressure (normotensive rats; 2.5 mg/kg iv, 60 min): 73.7 ± 7.9 ^a mmHg
SBP—systolic blood pressure (normotensive rats; 2.5 mg/kg iv, 60 min): 105.2 ± 9.7 ^a mmHg
decrease of the systolic blood pressure (normotensive rats; 2.5 mg/kg iv, between the 5th and 30th min and between the 50th and 60th min): 8–10%
decrease of the diastolic blood pressure (normotensive rats; 2.5 mg/kg iv, between the 5th to 40th min and in the 60th min): 13–15%
